Experimental data taken from patent publication US20240425479A1, “HALO-SUBSTITUTED AMINO AZA-HETEROARYL COMPOUNDS AS INHIBITORS OF THE HAEMATOPOIETIC PROGENITOR KINASE 1 (HPK1)” (priority 2021, published 2024).

Target: T1, Recombinant (1-346) HPK1 (h) (Homo sapiens, UniProt Q92918)
T1 construct: Recombinant (1-346) HPK1 (h) is incubated with 8 mM MOPS pH 7.0
T1 sequence (Q92918 1-346): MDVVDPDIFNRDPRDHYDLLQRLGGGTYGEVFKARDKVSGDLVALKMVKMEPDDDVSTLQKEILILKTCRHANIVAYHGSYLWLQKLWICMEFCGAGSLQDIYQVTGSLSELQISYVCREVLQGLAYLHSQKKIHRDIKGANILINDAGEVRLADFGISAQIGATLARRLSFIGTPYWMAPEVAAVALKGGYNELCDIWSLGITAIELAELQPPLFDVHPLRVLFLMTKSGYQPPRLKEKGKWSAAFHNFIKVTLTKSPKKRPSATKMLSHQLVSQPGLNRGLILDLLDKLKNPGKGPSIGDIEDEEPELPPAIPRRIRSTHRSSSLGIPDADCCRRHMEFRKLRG
Test: HPK1 human STE kinase enzymatic radiometric assay
Format: biochemical
Conditions: read-out: HPK1 IC50 nM Range
In short: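 Recombinant HPK1 (1-346) incubated 40 min at RT with 0.33 mg/mL myelin basic protein and [gamma-33P]-ATP in 8 mM MOPS pH 7.0, 0.2 mM EDTA, 10 mM Mg acetate; reaction started with Mg/ATP. Stopped with 0.5% phosphoric acid, spotted on P30 filtermat, washed, scintillation counted. Compounds tested as 9-point 3-fold dilutions.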

Row | SMILES | IC50
1 | C[C@@H]1CCCN1Cc1cc(-c2nc(-c3ccc4c(c3)C(F)(F)CNC4=O)c(N)nc2F)ccc1C1CCOCC1 [Example I-232, (R)-6-(3-amino-5-fluoro-6-(3-((2-methylpyrrolidin-1-yl)methyl)-4-(tetrahydro-2H-pyran-4-yl)phenyl)pyrazin-2-yl)-4,4-difluoro-3,4-dihydroisoquinolin-1(2H)-one] | 0.1 to 10 nM
2 | C[C@H]1CCCN1Cc1cc(-c2nc(-c3ccc4c(c3)C(F)(F)CNC4=O)c(N)nc2F)ccc1C1CCOCC1 [Example I-233, (S)-6-(3-amino-5-fluoro-6-(3-((2-methylpyrrolidin-1-yl)methyl)-4-(tetrahydro-2H-pyran-4-yl)phenyl)pyrazin-2-yl)-4,4-difluoro-3,4-dihydroisoquinolin-1(2H)-one] | 0.1 to 10 nM
3 | Cc1c[nH]c(=O)c2cc(F)c(-c3nc(-c4ccc(N5CCN(C(C)C)CC5)cc4)c(F)nc3N)cc12 [Example I-234, 6-(3-amino-5-fluoro-6-(4-(4-isopropylpiperazin-1-yl)phenyl)pyrazin-2-yl)-7-fluoro-4-methylisoquinolin-1(2H)-one] | 0.1 to 10 nM
4 | Cc1c[nH]c(=O)c2cc(F)c(-c3nc(-c4ccc(C5CCOCC5)c(CN(C)C)c4)c(F)nc3N)cc12 [Example I-235, 6-(3-amino-6-(3-((dimethylamino)methyl)-4-(tetrahydro-2H-pyran-4-yl)phenyl)-5-fluoropyrazin-2-yl)-7-fluoro-4-methylisoquinolin-1(2H)-one] | 0.1 to 10 nM
5 | Cc1c[nH]c(=O)c2ccc(-c3nc(-c4cnc(N5CCOCC5)c(CN(C)C)c4)c(F)nc3N)cc12 [Example I-236, 6-(3-amino-6-(5-((dimethylamino)methyl)-6-morpholinopyridin-3-yl)-5-fluoropyrazin-2-yl)-4-methylisoquinolin-1(2H)-one] | 11 to 100 nM
6 | CN(C)Cc1cc(-c2nc(-c3ccc4c(c3)CCNC4=O)c(N)nc2F)cnc1N1CCOCC1 [Example I-237, 6-(3-amino-6-(5-((dimethylamino)methyl)-6-morpholinopyridin-3-yl)-5-fluoropyrazin-2-yl)-3,4-dihydroisoquinolin-1(2H)-one] | 11 to 100 nM
7 | CCN(C)Cc1cc(-c2nc(-c3ccc4c(=O)[nH]cc(C)c4c3)c(N)nc2F)ccc1C1CCOCC1 [Example I-239, 6-(3-amino-6-(3-((ethyl(methyl)amino)methyl)-4-(tetrahydro-2H-pyran-4-yl)phenyl)-5-fluoropyrazin-2-yl)-4-methylisoquinolin-1(2H)-one] | 0.1 to 10 nM
8 | CN(C)Cc1c(N2CCOCC2)ccc(-c2nc(-c3ccc4c(c3)CCNC4=O)c(N)nc2F)c1F [Example I-240] | 11 to 100 nM
9 | CN(C)Cc1c(N2CCOCC2)ccc(-c2nc(-c3cc4c(cc3F)C(=O)NCC4)c(N)nc2F)c1F [Example I-241, 6-(3-amino-6-(3-((dimethylamino)methyl)-2-fluoro-4-morpholinophenyl)-5-fluoropyrazin-2-yl)-7-fluoro-3,4-dihydroisoquinolin-1(2H)-one] | 11 to 100 nM
10 | CN(C)Cc1c(N2CCOCC2)ccc(-c2nc(-c3cc(F)c4c(c3)CCNC4=O)c(N)nc2F)c1F [Example I-242, 6-(3-amino-6-(3-((dimethylamino)methyl)-2-fluoro-4-morpholinophenyl)-5-fluoropyrazin-2-yl)-8-fluoro-3,4-dihydroisoquinolin-1(2H)-one] | 11 to 100 nM
11 | Nc1nc(F)c(-c2ccc(N3CCOCC3)c(CN3CCC3)c2F)nc1-c1ccc2c(c1)CCNC2=O [Example I-243, 6-(3-amino-6-(3-(azetidin-1-ylmethyl)-2-fluoro-4-morpholinophenyl)-5-fluoropyrazin-2-yl)-3,4-dihydroisoquinolin-1(2H)-one] | 11 to 100 nM
12 | Nc1nc(F)c(-c2ccc(N3CCOCC3)c(CN3CCC3)c2F)nc1-c1cc2c(cc1F)C(=O)NCC2 [Example I-244, 6-(3-amino-6-(3-(azetidin-1-ylmethyl)-2-fluoro-4-morpholinophenyl)-5-fluoropyrazin-2-yl)-7-fluoro-3,4-dihydroisoquinolin-1(2H)-one] | 11 to 100 nM
13 | Nc1nc(F)c(-c2ccc(N3CCOCC3)c(CN3CCC3)c2F)nc1-c1cc(F)c2c(c1)CCNC2=O [Example I-245, 6-(3-amino-6-(3-(azetidin-1-ylmethyl)-2-fluoro-4-morpholinophenyl)-5-fluoropyrazin-2-yl)-8-fluoro-3,4-dihydroisoquinolin-1(2H)-one] | 11 to 100 nM
14 | CCN(C)Cc1c(N2CCOCC2)ccc(-c2nc(-c3cc4c(cc3F)C(=O)NCC4)c(N)nc2F)c1F [Example I-246, 6-(3-amino-6-(3-((ethyl(methyl)amino)methyl)-2-fluoro-4-morpholinophenyl)-5-fluoropyrazin-2-yl)-7-fluoro-3,4-dihydroisoquinolin-1(2H)-one] | 11 to 100 nM
15 | CCN(C)Cc1c(N2CCOCC2)ccc(-c2nc(-c3cc(F)c4c(c3)CCNC4=O)c(N)nc2F)c1F [Example I-247, 6-(3-amino-6-(3-((ethyl(methyl)amino)methyl)-2-fluoro-4-morpholinophenyl)-5-fluoropyrazin-2-yl)-8-fluoro-3,4-dihydroisoquinolin-1(2H)-one] | 11 to 100 nM
16 | CCN(C)Cc1c(N2CCOCC2)ccc(-c2nc(-c3ccc4c(c3)CCNC4=O)c(N)nc2F)c1F [Example I-248, 6-(3-amino-6-(3-((ethyl(methyl)amino)methyl)-2-fluoro-4-morpholinophenyl)-5-fluoropyrazin-2-yl)-3,4-dihydroisoquinolin-1(2H)-one] | 11 to 100 nM
17 | COc1ccc(-c2nc(-c3cc4c(cc3F)C(=O)NCC4)c(N)nc2F)cc1CN(C)C [Example I-249, 6-(3-amino-6-(3-((dimethylamino)methyl)-4-methoxyphenyl)-5-fluoropyrazin-2-yl)-7-fluoro-3,4-dihydroisoquinolin-1(2H)-one] | 0.1 to 10 nM
18 | COc1ccc(-c2nc(-c3ccc4c(c3)CCNC4=O)c(N)nc2F)cc1CN(C)C [Example I-250, 6-(3-amino-6-(3-((dimethylamino)methyl)-4-methoxyphenyl)-5-fluoropyrazin-2-yl)-3,4-dihydroisoquinolin-1(2H)-one] | 11 to 100 nM
19 | CN(C)[C@@H]1COc2ccc(-c3nc(-c4ccc5c(=O)[nH]cc(F)c5c4)c(N)nc3F)cc21 [Example I-251, (S)-6-(3-amino-6-(3-(dimethylamino)-2,3-dihydrobenzofuran-5-yl)-5-fluoropyrazin-2-yl)-4-fluoroisoquinolin-1(2H)-one] | 0.1 to 10 nM
20 | CN(C)[C@@H]1COc2ccc(-c3nc(-c4ccc5c(=O)[nH]cc(Cl)c5c4)c(N)nc3F)cc21 [Example I-252, (S)-6-(3-amino-6-(3-(dimethylamino)-2,3-dihydrobenzofuran-5-yl)-5-fluoropyrazin-2-yl)-4-chloroisoquinolin-1(2H)-one] | 0.1 to 10 nM
21 | CN(C)[C@@H]1COc2ccc(-c3nc(-c4cc(F)c5c(=O)[nH]cc(F)c5c4)c(N)nc3F)cc21 [Example I-253, (S)-6-(3-amino-6-(3-(dimethylamino)-2,3-dihydrobenzofuran-5-yl)-5-fluoropyrazin-2-yl)-4,8-difluoroisoquinolin-1(2H)-one] | 0.1 to 10 nM
22 | CN(C)[C@@H]1COc2ccc(-c3nc(-c4cc(F)c5c(c4)CCNC5=O)c(N)nc3F)cc21 [Example I-254, (S)-6-(3-amino-6-(3-(dimethylamino)-2,3-dihydrobenzofuran-5-yl)-5-fluoropyrazin-2-yl)-8-fluoro-3,4-dihydroisoquinolin-1(2H)-one] | 11 to 100 nM
